These results are taken from ChEMBL document CHEMBL5724914, “Linking interpersonal differences in gut microbiota composition and drug biotransformation activity” (2024).

Data set [1] in a line: The drug is tested on WLS-038 corresponding to human gut metagenome with ENA study accession number: PRJEB37062 and ENA sample accession number: ERS12561745 for biotransformation under anaerobic condition. The drug concentrations were measured over 9 timepoints collected between 0 and 24 hours of incubation by liquid-chromatography-coupled mass spectrometry (LC–MS). The following applies: 2 µM.

For data set [2] the following is noted: human gut metagenome, 24 h, 2 µM.
A short description of data set [3]: The drug is tested on Z-010 corresponding to metagenome with ENA study accession number: PRJEB37062 and ENA sample accession number: ERS12561810 for biotransformation under anaerobic condition. The drug concentrations were measured over 9 timepoints collected between 0 and 24 hours of incubation by liquid-chromatography-coupled mass spectrometry (LC–MS). The note with it: 2 µM.

The conditions of data set [4]: human gut metagenome, 24 h, 2 µM. This is another data set of the same source.
The conditions of data set [5]: human gut metagenome, 24 h, 2 µM. This is another data set of the same source.
A short description of data set [6]: The drug is tested on Z-014 corresponding to rat gut metagenome with ENA study accession number: PRJEB37062 and ENA sample accession number: ERS12561814 for biotransformation under anaerobic condition. The drug concentrations were measured over 9 timepoints collected between 0 and 24 hours of incubation by liquid-chromatography-coupled mass spectrometry (LC–MS). The following applies: 2 µM.

A short description of data set [7]: The drug is tested on WLS-039 corresponding to human gut metagenome with ENA study accession number: PRJEB37062 and ENA sample accession number: ERS12561746 for biotransformation under anaerobic condition. The drug concentrations were measured over 9 timepoints collected between 0 and 24 hours of incubation by liquid-chromatography-coupled mass spectrometry (LC–MS). The following applies: 2 µM.

For data set [8] the following is noted: human gut metagenome, 24 h, 2 µM. The source holds these as a separate data set.
The conditions of data set [9]: human gut metagenome, 24 h, 2 µM. This is another data set of the same source.
The conditions of data set [10]: human gut metagenome, 24 h, 2 µM. The source holds these as a separate data set.
A short description of data set [11]: The drug is tested on WLS-010 corresponding to human gut metagenome with ENA study accession number: PRJEB37062 and ENA sample accession number: ERS12561743 for biotransformation under anaerobic condition. The drug concentrations were measured over 9 timepoints collected between 0 and 24 hours of incubation by liquid-chromatography-coupled mass spectrometry (LC–MS). The following applies: 2 µM.

Data set [12] in a line: The drug is tested on WLS-027 corresponding to human gut metagenome with ENA study accession number: PRJEB37062 and ENA sample accession number: ERS12561744 for biotransformation under anaerobic condition. The drug concentrations were measured over 9 timepoints collected between 0 and 24 hours of incubation by liquid-chromatography-coupled mass spectrometry (LC–MS). The note with it: 2 µM.

For data set [13] the following is noted: human gut metagenome, 24 h, 2 µM. The source holds these as a separate data set.
For data set [14] the following is noted: human gut metagenome, 24 h, 2 µM. The source holds these as a separate data set.
The nature of data set [15]: The drug is tested on Z-022 corresponding to mouse gut metagenome with ENA study accession number: PRJEB37062 and ENA sample accession number: ERS12561821 for biotransformation under anaerobic condition. The drug concentrations were measured over 9 timepoints collected between 0 and 24 hours of incubation by liquid-chromatography-coupled mass spectrometry (LC–MS). The note with it: 2 µM.

The conditions of data set [16]: human gut metagenome, 24 h, 2 µM. The source holds these as a separate data set.
Data set [17] can be described thus: The drug is tested on WLS-090 corresponding to human gut metagenome with ENA study accession number: PRJEB37062 and ENA sample accession number: ERS12561753 for biotransformation under anaerobic condition. The drug concentrations were measured over 9 timepoints collected between 0 and 24 hours of incubation by liquid-chromatography-coupled mass spectrometry (LC–MS). The following applies: 2 µM.

Data set [18] in a line: The drug is tested on Z-018 corresponding to pig gut metagenome with ENA study accession number: PRJEB37062 and ENA sample accession number: ERS12561817 for biotransformation under anaerobic condition. The drug concentrations were measured over 9 timepoints collected between 0 and 24 hours of incubation by liquid-chromatography-coupled mass spectrometry (LC–MS). The note with it: 2 µM.

The nature of data set [19]: The drug is tested on WLS-350 corresponding to human gut metagenome with ENA study accession number: PRJEB37062 and ENA sample accession number: ERS12561789 for biotransformation under anaerobic condition. The drug concentrations were measured over 9 timepoints collected between 0 and 24 hours of incubation by liquid-chromatography-coupled mass spectrometry (LC–MS). The note with it: 2 µM.

A short description of data set [20]: The drug is tested on Z-029 corresponding to rat gut metagenome with ENA study accession number: PRJEB37062 and ENA sample accession number: ERS12561828 for biotransformation under anaerobic condition. The drug concentrations were measured over 9 timepoints collected between 0 and 24 hours of incubation by liquid-chromatography-coupled mass spectrometry (LC–MS). The note with it: 2 µM.

SMILES strings stand for the structures.
Also: call rule not given here.

With `N#Cc1ccc(C(c2ccc(C#N)cc2)n2cncn2)cc1` [LETROZOLE], the “Bacterial Biotransformation” value in data set [1], in data set [2], in [3], in data set [4], in [5] and in data set [6] was “Compound NOT metabolized” each time. The “Bacterial Biotransformation” value in data set [7], in data set [8], in data set [9], in data set [10], in data set [11] and in data set [12] was “Compound NOT metabolized” throughout. The “Bacterial Biotransformation” value in data set [13] is given as “Compound NOT metabolized”; in data set [14] it was “Compound NOT metabolized”; in data set [15], “Compound metabolized”; in [16], “Compound NOT metabolized”; in [17], “Compound NOT metabolized”; in data set [18], “Compound NOT metabolized”. For the same molecule, the “Bacterial Biotransformation” value was “Compound NOT metabolized” in data set [19] and “Compound metabolized” in [20].
As for `CC(Oc1c(Cl)cccc1Cl)C1=NCCN1` (stereo not given) [LOFEXIDINE], the “Bacterial Biotransformation” value in data set [1] is listed as “Compound NOT metabolized”; in data set [2], “Compound NOT metabolized”; in [3], “Compound NOT metabolized”; in [4], “Compound metabolized”; in data set [5] it was “Compound metabolized”; in data set [6] it was “Compound NOT metabolized”. The “Bacterial Biotransformation” value is “Compound NOT metabolized” in data set [7]; “Compound metabolized” in [8]; “Compound NOT metabolized” in data set [9]; “Compound NOT metabolized” in data set [10]; “Compound NOT metabolized” in data set [11]; “Compound metabolized” in data set [12]. The “Bacterial Biotransformation” value in data set [13] was “Compound NOT metabolized”; in [14], “Compound NOT metabolized”; in data set [15], “Compound NOT metabolized”; in data set [16], “Compound NOT metabolized”; in data set [17], “Compound metabolized”; in [18], “Compound NOT metabolized”. The “Bacterial Biotransformation” value in data set [19] and in data set [20] was “Compound NOT metabolized” in each case.
Turning to `CN(C)C(=O)C(CCN1CCC(O)(c2ccc(Cl)cc2)CC1)(c1ccccc1)c1ccccc1` [LOPERAMIDE], the “Bacterial Biotransformation” value in [1], in data set [2], in data set [3], in data set [4], in [5] and in data set [6] was “Compound metabolized” in each case. Further, the “Bacterial Biotransformation” value in data set [7], in [8], in [9], in data set [10], in data set [11] and in [12] was “Compound metabolized” each time. Further, the “Bacterial Biotransformation” value in data set [13], in [14], in data set [15], in [16], in data set [17] and in data set [18] was “Compound metabolized” in each case. Also, the “Bacterial Biotransformation” value is “Compound metabolized” in data set [19] and “Compound NOT metabolized” in data set [20].
With `CCCCc1nc(Cl)c(CO)n1Cc1ccc(-c2ccccc2-c2nn[nH]n2)cc1` [LOSARTAN], the “Bacterial Biotransformation” value is reported as “Compound NOT metabolized” in [1]; “Compound metabolized” in [2]; “Compound NOT metabolized” in [3]; “Compound metabolized” in [4]; “Compound metabolized” in [5]; “Compound NOT metabolized” in [6]. The “Bacterial Biotransformation” value in [7] was “Compound NOT metabolized”; in data set [8] it was “Compound metabolized”; in [9], “Compound metabolized”; in data set [10], “Compound metabolized”; in [11], “Compound metabolized”; in data set [12], “Compound metabolized”. For the same molecule, the “Bacterial Biotransformation” value in data set [13] is given as “Compound metabolized”; in [14] it was “Compound NOT metabolized”; in data set [15], “Compound NOT metabolized”; in data set [16], “Compound metabolized”; in data set [17] it was “Compound metabolized”; in data set [18], “Compound NOT metabolized”. Further, the “Bacterial Biotransformation” value in [19] and in data set [20] was “Compound metabolized” throughout.
Regarding `COC(=O)Nc1nc2ccc(C(=O)c3ccccc3)cc2[nH]1` [MEBENDAZOLE], the “Bacterial Biotransformation” value is “Compound metabolized” in data set [1]; “Compound metabolized” in [2]; “Compound metabolized” in data set [3]; “Compound metabolized” in data set [4]; “Compound metabolized” in data set [5]; “Compound NOT metabolized” in [6]. Moreover, the “Bacterial Biotransformation” value in data set [7], in data set [8], in [9], in [10], in data set [11] and in data set [12] was “Compound metabolized” each time. The “Bacterial Biotransformation” value in data set [13], in data set [14], in data set [15], in data set [16], in [17] and in data set [18] was “Compound metabolized” in each case. The figures for the “Bacterial Biotransformation” value in [19] and in data set [20] were “Compound NOT metabolized” and “Compound metabolized”, respectively.
On to `COc1ccccc1OCC(O)COC(N)=O` (stereo not given) [METHOCARBAMOL], for which the “Bacterial Biotransformation” value in [1], in data set [2], in data set [3], in data set [4], in [5] and in data set [6] was “Compound NOT metabolized” throughout. For the same molecule, the “Bacterial Biotransformation” value in data set [7], in data set [8], in [9], in data set [10], in data set [11] and in [12] was “Compound NOT metabolized” throughout. In addition, the “Bacterial Biotransformation” value in data set [13], in [14], in data set [15], in data set [16], in [17] and in [18] was “Compound NOT metabolized” each time. The “Bacterial Biotransformation” value in data set [19] and in [20] was “Compound NOT metabolized” throughout.
